The text below walks through data of PubChem BioAssay (NCI).

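48-hour exposure; five concentrations; linearly interpolated endpoints. The concentration for 50% growth inhibition is given as GI50. TGI: concentration producing complete growth inhibition.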

Assay in all cases: inhibition of tumour cell growth, NCI panel, 48 h
For experiment [1], the system named is SK-MEL-5 melanoma.
Experiment [2] concerns T-47D breast.
Experiment [3] deals with SK-MEL-2 melanoma.
The test system of experiment [4] is UACC-257 melanoma.
Experiment [5] concerns SK-OV-3 ovarian.
Experiment [6] concerns HOP-92 NSCLC.
Experiment [7] has as its system SNB-19 CNS.
Experiment [8] concerns UACC-62 melanoma.
The subject of experiment [9] is 786-0 renal.
For experiment [10], the system named is MOLT-4 leukemia.
Experiment [11] deals with UO-31 renal.
In experiment [12] the test system is BT-549 breast.
Experiment [13] concerns RPMI-8226 leukemia.
Experiment [14] relates to HCT-15 colon.
The test system of experiment [15] is OVCAR-4 ovarian.
Experiment [16] relates to SN12C renal.
The test system of experiment [17] is MDA-MB-231 breast.
Experiment [18] has as its system M14 melanoma.
The test system of experiment [19] is HOP-62 NSCLC.

With `NC(N)=NS(=O)(=O)c1ccc(NCc2cccc3c(=O)c4ccc(Cl)cc4oc23)cc1`, the TGI in experiment [1] was > 16.5 µM; in experiment [2], > 23.7 µM; in [3] it was > 16.7 µM; in [4], > 25 µM; in experiment [5] it was > 17.3 µM; in experiment [6] it was 17.8 µM. Also, the TGI is 22.2 µM in experiment [7]; > 24.1 µM in experiment [8]; > 12.9 µM in experiment [9]; > 20.1 µM in [10]; > 12.1 µM in experiment [11]; > 14.4 µM in [12]. In addition, the TGI in experiment [13] is > 25 µM; in experiment [14], > 20 µM; in [15], > 18 µM; in experiment [16] it was > 14.2 µM; in experiment [17] it was > 15.6 µM; in experiment [18], > 16.3 µM. Further, in experiment [19], the TGI is > 18.9 µM.
`N#Cc1ccc(N=NN2CCCC2)cc1`: the TGI in [1], in experiment [2], in experiment [3], in experiment [4], in [5] and in experiment [6] was > 100 µM in each case. In addition, the TGI in [7], in [8], in experiment [9], in experiment [10], in experiment [11] and in experiment [12] was > 100 µM throughout. Moreover, the TGI in [13], in experiment [14], in [15], in experiment [16], in experiment [17] and in experiment [18] was > 100 µM in each case. Besides, the TGI in [19] is > 100 µM.
On to `CC1=NN(c2ccccc2Cl)C2(C1)C(Cl)C(=O)N2c1nc2ccccc2s1` (centres undefined), for which the TGI in experiment [1], in experiment [2], in experiment [3], in [4], in experiment [5] and in [6] was > 100 µM in each case. Moreover, the TGI is > 100 µM in [7]; > 100 µM in [8]; > 100 µM in [9]; 91.6 µM in experiment [10]; > 100 µM in experiment [11]; > 100 µM in experiment [12]. For the same compound, the TGI in [13] is 58.6 µM; in experiment [14], > 100 µM; in experiment [15], > 100 µM; in [16], > 100 µM; in experiment [17], > 100 µM; in experiment [18], > 100 µM. For the same compound, the TGI in [19] is > 100 µM.
As for `CC1CCC2C(C(=O)O[C@H]3C4C=CO[C@@H](OC5OC(CO)C(O)C(O)C5O)C4[C@@]4(CO)O[C@@H]34)=CO[C@@H](OC3OC(CO)C(O)C(O)C3O)C12` (some centres undefined), the TGI in experiment [1], in experiment [2], in [3], in experiment [4], in [5] and in experiment [6] was > 10 µM each time. Moreover, the TGI in [7], in [8], in experiment [9], in experiment [10], in [11] and in experiment [12] was > 10 µM each time. For the same compound, the TGI in experiment [13], in [14], in [15], in experiment [16], in [17] and in experiment [18] was > 10 µM throughout. Moreover, in experiment [19], the TGI was > 10 µM.
As to `COC(=O)c1ccc(C)cc1C1CN=NC12Cc1c(C)cccc1C2=O` (centres undefined), the TGI was > 53.2 µM in experiment [1]; 81.7 µM in experiment [2]; 98.3 µM in [3]; > 81.8 µM in experiment [4]; > 93.4 µM in [5]; 97 µM in [6]. Moreover, the TGI in experiment [7] was > 100 µM; in [8], > 68.7 µM; in experiment [9], > 100 µM; in experiment [10] it was > 69.6 µM; in [11], > 100 µM; in experiment [12] it was > 70.1 µM. In addition, the TGI in [13] was > 75.3 µM; in [14], > 100 µM; in [15] it was > 93.9 µM; in [16] it was > 95.6 µM; in [17], > 100 µM; in [18], > 100 µM. In experiment [19], the TGI is > 100 µM. Besides, in experiment [18], the GI50 was 25.9 µM.
For `O=C(Cn1c(C(=O)/C=C/c2ccc(Cl)c(Cl)c2)nc2ccccc21)c1ccccc1`, the TGI was 35.4 µM in [1]; > 100 µM in experiment [2]; 47.1 µM in experiment [3]; > 100 µM in [4]; > 100 µM in experiment [5]; 96.1 µM in experiment [6]. Besides, the TGI in [7] was 86.1 µM; in experiment [8] it was > 100 µM; in [9], 44 µM; in experiment [10] it was > 100 µM; in [11], 56 µM; in experiment [12], 99.3 µM. Moreover, the TGI in experiment [13] is > 100 µM; in experiment [14] it was 91.6 µM; in experiment [15], 73.2 µM; in [16] it was 34.4 µM; in experiment [17] it was 70.5 µM; in experiment [18] it was 72.2 µM. Further, the TGI in experiment [19] was > 100 µM.
For the compound `CCCCCCCCCCCCCCCCNc1nc(=O)n(C2CC(O)C(COP(=O)(O)OC3CC(n4cc(F)c(=O)[nH]c4=O)OC3CO)O2)cc1F` (centres undefined), the TGI is > 41.9 µM in [1]; > 100 µM in [2]; > 63.9 µM in [3]; > 59 µM in [4]; > 100 µM in experiment [5]; > 59.5 µM in experiment [6]. The TGI in experiment [7] was 3.39 µM; in experiment [8], 17.3 µM; in [9], > 100 µM; in experiment [10], 17.9 µM; in experiment [11], > 46.8 µM; in experiment [12], 35.3 µM. Further, the TGI in [13] was 25.5 µM; in [14], 50.9 µM; in experiment [15] it was > 100 µM; in experiment [16] it was > 100 µM; in [17], > 91.5 µM; in experiment [18], 16.5 µM. This compound had a TGI in experiment [19] of 5.4 µM.
